For 17 molecules, IC50 results are on record in patent US8937071B2, “Compounds as rearranged during transfection (RET) inhibitors” (GlaxoSmithKline Intellectual Property Development Limited, priority 2013, dated 2015).

Counter-ions that a name gives are not always drawn. Like-named read-outs stand apart in the source and are kept apart here. Some results are limits rather than exact numbers.

The subject of one assay is TT cells. Nature of the assay: RET kinase cell-based proliferation assay. Also noted: species or system human. Conditions: 192 h, read-out: RET IC50. The text has this: RET Kinase Cell-Based Proliferation Assay
A further assay has as its target RET kinase (Homo sapiens, UniProt P07949, C634W). Briefly: RET kinase cell-based mechanistic assay (constitutive RET kinase phosphorylation in TT cells).
Where [1] appears, read: human RET kinase cell-based proliferation assay, TT cells, eight days, CellTiter-Glo, Table 4.

RET kinase, sequence (P07949 29-1114 C634W): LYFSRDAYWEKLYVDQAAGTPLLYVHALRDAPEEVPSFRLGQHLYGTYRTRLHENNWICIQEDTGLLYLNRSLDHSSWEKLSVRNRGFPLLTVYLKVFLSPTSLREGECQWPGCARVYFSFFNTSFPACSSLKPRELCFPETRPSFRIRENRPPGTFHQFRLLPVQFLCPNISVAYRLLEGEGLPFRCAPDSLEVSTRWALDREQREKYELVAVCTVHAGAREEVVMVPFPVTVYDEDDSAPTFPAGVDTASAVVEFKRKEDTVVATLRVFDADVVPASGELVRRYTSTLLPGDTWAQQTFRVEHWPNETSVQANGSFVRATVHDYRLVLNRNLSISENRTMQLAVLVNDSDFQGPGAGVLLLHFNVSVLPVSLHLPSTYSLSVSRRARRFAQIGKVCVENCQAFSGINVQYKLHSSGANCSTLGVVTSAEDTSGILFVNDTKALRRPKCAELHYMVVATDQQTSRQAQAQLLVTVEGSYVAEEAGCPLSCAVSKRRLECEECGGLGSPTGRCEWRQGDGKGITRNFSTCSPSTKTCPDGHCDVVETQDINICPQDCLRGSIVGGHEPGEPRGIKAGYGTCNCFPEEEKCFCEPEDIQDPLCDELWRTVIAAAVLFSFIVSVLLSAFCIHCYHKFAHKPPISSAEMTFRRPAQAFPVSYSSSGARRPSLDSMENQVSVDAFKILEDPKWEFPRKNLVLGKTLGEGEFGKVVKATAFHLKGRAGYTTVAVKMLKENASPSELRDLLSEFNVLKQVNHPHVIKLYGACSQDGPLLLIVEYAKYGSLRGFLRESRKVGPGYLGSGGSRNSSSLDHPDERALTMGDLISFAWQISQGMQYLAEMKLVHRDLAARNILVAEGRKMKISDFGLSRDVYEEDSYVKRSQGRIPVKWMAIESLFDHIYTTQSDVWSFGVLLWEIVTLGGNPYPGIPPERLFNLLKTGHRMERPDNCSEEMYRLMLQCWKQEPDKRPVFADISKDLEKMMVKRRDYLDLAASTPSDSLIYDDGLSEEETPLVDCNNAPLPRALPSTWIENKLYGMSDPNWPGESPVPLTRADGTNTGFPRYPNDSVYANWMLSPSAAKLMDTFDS

With `CCOc1cc(-c2ccc(CC(=O)Nc3ccc(CN4CCN(CC)CC4)c(C(F)(F)F)c3)c(F)c2)c[nH]c1=O` [Example 21, 2-(4-(5-Ethoxy-6-oxo-1,6-dihydropyridin-3-yl)-2-fluorophenyl)-N-(4-((4-ethylpiperazin-1-yl)methyl)-3-(trifluoromethyl)phenyl)acetamide, 2 Hydrochloride], the IC50 with TT cells (setting [1]) was less than 100 nM.

With `CCOc1cc(-c2ccc(CC(=O)Nc3cc(C(F)(F)F)cc(C(F)(F)F)c3)c(F)c2)c[nH]c1=O` [Example 25, N-(3,5-bis(trifluoromethyl)phenyl)-2-(4-(5-ethoxy-6-oxo-1,6-dihydropyridin-3-yl)-2-fluorophenyl)acetamide], the IC50 was in the range of 100 to 500 nM on RET kinase and 500 to 10000 nM in the assay with TT cells (setting [1]).

In the case of `CCOc1cc(-c2ccc(CC(=O)Nc3ccc(CN(C)C)c(C(F)(F)F)c3)c(F)c2)c[nH]c1=O` [Example 17, N-(4-((Dimethylamino)methyl)-3-(trifluoromethyl)phenyl)-2-(4-(5-ethoxy-6-oxo-1,6-dihydropyridin-3-yl)-2-fluorophenyl)acetamide, Hydrochloride], the IC50 is less than 100 nM against RET kinase and 100 to 500 nM with TT cells (Homo sapiens, TT).

Take `CCOc1cc(-c2ccc(CC(=O)Nc3cc(C(F)(F)F)ccc3F)c(F)c2)c[nH]c1=O` [Example 26, 2-(4-(5-ethoxy-6-oxo-1,6-dihydropyridin-3-yl)-2-fluorophenyl)-N-(2-fluoro-5-(trifluoromethyl)phenyl)acetamide]: in the assay on TT cells (setting [1]), the IC50 was 500 to 10000 nM.

As for `CCOc1cc(=O)[nH]cc1-c1ccc(CC(=O)Nc2ccc(C#N)c(C(F)(F)F)c2)cc1F` [Example 7, N-(4-Cyano-3-(trifluoromethyl)phenyl)-2-(4-(4-ethoxy-6-oxo-1,6-dihydropyridin-3-yl)-3-fluorophenyl)acetamide], the half-maximal inhibitory concentration (IC50) against RET kinase and with TT cells (setting [1]) was 100 to 500 nM in each case.

As to `CCOc1cc(-c2ccc(CC(=O)Nc3ccc(Cl)c(C(F)(F)F)c3)c(F)c2)c[nH]c1=O` [Example 16, N-(4-Chloro-3-(trifluoromethyl)phenyl)-2-(4-(5-ethoxy-6-oxo-1,6-dihydropyridin-3-yl)-2-fluorophenyl)acetamide], the IC50 against RET kinase was 100 to 500 nM; in the assay on TT cells (setting [1]), less than 100 nM.

For the molecule `CCOc1cc(-c2ccc(CC(=O)Nc3ccc(C#N)c(C(F)(F)F)c3)c(F)c2)c[nH]c1=O` [Example 9, N-(4-Cyano-3-(trifluoro-methyl)phenyl)-2-(4-(5-ethoxy-6-oxo-1,6-dihydro-pyridin-3-yl)-2-fluorophenyl)acetamide], the IC50 at RET kinase and in the assay on TT cells (setting [1]) was 100 to 500 nM each time.

`CCOc1cc(-c2ccc(CC(=O)Nc3cc(-n4cnc(C)c4)cc(C(F)(F)F)c3)c(F)c2)c[nH]c1=O` [Example 11, 2-(4-(5-Ethoxy-6-oxo-1,6-dihydropyridin-3-yl)-2-fluorophenyl)-N-(3-(4-methyl-1H-imidazol-1-yl)-5-(trifluoromethyl)phenyl)acetamide, Hydrochloride]: the IC50 is less than 100 nM at RET kinase and 100 to 500 nM in the assay on TT cells (Homo sapiens, TT).

As to `CCOc1ncc(NC(=O)Cc2ccc(-c3c[nH]c(=O)c(OCC)c3)cc2F)cc1C(F)(F)F` [Example 2, N-(6-Ethoxy-5-(trifluoromethyl)pyridin-3-yl)-2-(4-(5-ethoxy-6-oxo-1,6-dihydropyridin-3-yl)-2-fluorophenyl)acetamide, Hydrochloride], the IC50 against RET kinase was less than 100 nM; in the assay on TT cells (Homo sapiens, TT) it was 100 to 500 nM.

Take `CCOc1cc(-c2ccc(CC(=O)Nc3ccc(Cl)c(Cl)c3)c(F)c2)c[nH]c1=O` [Example 18, N-(3,4-Dichlorophenyl)-2-(4-(5-ethoxy-6-oxo-1,6-dihydropyridin-3-yl)-2-fluorophenyl)acetamide]: the concentration for half-maximal inhibition (IC50) against RET kinase and with TT cells (setting [1]) was 500 to 10000 nM throughout.

With `CCOc1cc(-c2ccc(CC(=O)Nc3ccc(CC(C)(C)CO)c(C(F)(F)F)c3)cc2F)c[nH]c1=O` [Example 6, 2-(4-(5-Ethoxy-6-oxo-1,6-dihydropyridin-3-yl)-3-fluorophenyl)-N-(4-(3-hydroxy-2,2-dimethylpropyl)-3-(trifluoromethyl)phenyl)acetamide], the IC50 at RET kinase and in the assay with TT cells (setting [1]) was less than 100 nM each time.

For the molecule `CCOc1cc(-c2ccc(CC(=O)Nc3ccc(OCCO)c(C(F)(F)F)c3)c(F)c2)c[nH]c1=O` [Example 13, 2-(4-(5-Ethoxy-6-oxo-1,6-dihydropyridin-3-yl)-2-fluorophenyl)-N-(4-(2-hydroxyethoxy)-3-(trifluoromethyl)phenyl)acetamide], the IC50 on RET kinase and with TT cells (setting [1]) was 100 to 500 nM throughout.

Regarding `CCOc1cc(-c2ccc(CC(=O)Nc3cnc(C(C)(C)O)c(C(F)(F)F)c3)c(F)c2)c[nH]c1=O` [Example 1, 2-(4-(5-Ethoxy-6-oxo-1,6-dihydropyridin-3-yl)-2-fluorophenyl)-N-(6-(2-hydroxypropan-2-yl)-5-(trifluoromethyl)pyridin-3-yl)acetamide], the IC50 against RET kinase and in the assay on TT cells (setting [1]) was 100 to 500 nM in each case.

On to `CCOc1cc(-c2ccc(CC(=O)Nc3cc(C(F)(F)F)c(F)cc3F)c(F)c2)c[nH]c1=O` [Example 24, N-(2,4-difluoro-5-(trifluoromethyl)phenyl)-2-(4-(5-ethoxy-6-oxo-1,6-dihydropyridin-3-yl)-2-fluorophenyl)acetamide], for which the IC50 against RET kinase was in the range of 100 to 500 nM; in the assay on TT cells (setting [1]) it was 500 to 10000 nM.

In the case of `CCOc1cc(-c2ccc(CC(=O)Nc3ccc(CC(C)(C)CO)c(C(F)(F)F)c3)c(F)c2)c[nH]c1=O` [Example 5, 2-(4-(5-Ethoxy-6-oxo-1,6-dihydropyridin-3-yl)-2-fluorophenyl)-N-(4-(3-hydroxy-2,2-dimethylpropyl)-3-(trifluoromethyl)phenyl)acetamide], the IC50 against RET kinase and in the assay on TT cells (setting [1]) was less than 100 nM throughout.

Consider `CCOc1cc(-c2ccc(CC(=O)Nc3ccc(C(N)=O)c(C(F)(F)F)c3)c(F)c2)c[nH]c1=O` [Example 23, 4-(2-(4-(5-ethoxy-6-oxo-1,6-dihydropyridin-3-yl)-2-fluorophenyl)acetamido)-2-(trifluoromethyl)benzamide], for which the IC50 on RET kinase and in the assay on TT cells (setting [1]) was 500 to 10000 nM in each case.

On to `CCOc1cc(-c2ccc(CC(=O)Nc3cc(C(C)(C)C(F)(F)F)on3)c(F)c2)c[nH]c1=O` [Example 19, 2-(4-(5-Ethoxy-6-oxo-1,6-dihydropyridin-3-yl)-2-fluorophenyl)-N-(5-(1,1,1-trifluoro-2-methylpropan-2-yl)isoxazol-3-yl)acetamide], for which the IC50 against RET kinase and with TT cells (setting [1]) was less than 100 nM each time.

The IC50 is the concentration needed to halve the response being measured.
